How the values were obtained:
Adenosine receptor A1 = target: T1, Adenosine receptor A1 (Homo sapiens, UniProt P30542)
T1 sequence (P30542 whole entry): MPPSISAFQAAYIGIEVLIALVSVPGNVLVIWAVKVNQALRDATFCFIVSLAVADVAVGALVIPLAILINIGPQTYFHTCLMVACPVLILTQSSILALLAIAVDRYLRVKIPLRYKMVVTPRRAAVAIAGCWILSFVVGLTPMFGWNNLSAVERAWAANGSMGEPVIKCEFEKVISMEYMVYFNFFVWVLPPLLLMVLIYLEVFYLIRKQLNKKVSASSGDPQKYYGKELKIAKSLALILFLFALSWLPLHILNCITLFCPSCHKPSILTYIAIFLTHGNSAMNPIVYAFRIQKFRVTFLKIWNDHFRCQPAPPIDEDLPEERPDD

Cannabinoid receptor 1 = Cannabinoid receptor 1 (Homo sapiens, UniProt P21554); type: functional, cell-based
Chain of Cannabinoid receptor 1 (P21554 whole entry): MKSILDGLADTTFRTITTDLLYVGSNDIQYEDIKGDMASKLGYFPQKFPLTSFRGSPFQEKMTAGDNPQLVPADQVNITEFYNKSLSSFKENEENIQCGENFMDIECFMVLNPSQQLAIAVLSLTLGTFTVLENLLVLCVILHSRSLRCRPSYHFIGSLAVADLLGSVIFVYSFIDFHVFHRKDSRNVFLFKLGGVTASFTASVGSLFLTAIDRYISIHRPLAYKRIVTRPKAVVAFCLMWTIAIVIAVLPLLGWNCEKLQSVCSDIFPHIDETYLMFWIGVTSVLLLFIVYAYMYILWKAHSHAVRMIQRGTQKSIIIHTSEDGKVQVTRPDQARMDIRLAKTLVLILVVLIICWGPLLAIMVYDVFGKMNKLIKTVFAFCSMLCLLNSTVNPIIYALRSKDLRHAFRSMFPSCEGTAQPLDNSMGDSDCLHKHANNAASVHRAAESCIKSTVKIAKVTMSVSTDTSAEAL

Melanocortin receptor 3 = Melanocortin receptor 3 (Homo sapiens, UniProt P41968)
Chain of Melanocortin receptor 3 (P41968 whole entry): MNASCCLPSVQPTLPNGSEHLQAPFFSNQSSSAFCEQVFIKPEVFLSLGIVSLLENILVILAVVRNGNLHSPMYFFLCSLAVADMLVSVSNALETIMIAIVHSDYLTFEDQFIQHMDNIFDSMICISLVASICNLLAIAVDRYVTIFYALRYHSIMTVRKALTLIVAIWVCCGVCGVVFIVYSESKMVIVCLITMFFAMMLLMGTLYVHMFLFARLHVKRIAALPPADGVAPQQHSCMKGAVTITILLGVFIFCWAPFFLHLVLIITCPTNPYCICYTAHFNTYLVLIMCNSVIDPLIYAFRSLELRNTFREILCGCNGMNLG

[1] = target: Voltage-dependent L-type calcium channel subunit alpha-1C (Rattus norvegicus, UniProt P22002); type: functional
Chain of Voltage-dependent L-type calcium channel subunit alpha-1C (P22002 whole entry): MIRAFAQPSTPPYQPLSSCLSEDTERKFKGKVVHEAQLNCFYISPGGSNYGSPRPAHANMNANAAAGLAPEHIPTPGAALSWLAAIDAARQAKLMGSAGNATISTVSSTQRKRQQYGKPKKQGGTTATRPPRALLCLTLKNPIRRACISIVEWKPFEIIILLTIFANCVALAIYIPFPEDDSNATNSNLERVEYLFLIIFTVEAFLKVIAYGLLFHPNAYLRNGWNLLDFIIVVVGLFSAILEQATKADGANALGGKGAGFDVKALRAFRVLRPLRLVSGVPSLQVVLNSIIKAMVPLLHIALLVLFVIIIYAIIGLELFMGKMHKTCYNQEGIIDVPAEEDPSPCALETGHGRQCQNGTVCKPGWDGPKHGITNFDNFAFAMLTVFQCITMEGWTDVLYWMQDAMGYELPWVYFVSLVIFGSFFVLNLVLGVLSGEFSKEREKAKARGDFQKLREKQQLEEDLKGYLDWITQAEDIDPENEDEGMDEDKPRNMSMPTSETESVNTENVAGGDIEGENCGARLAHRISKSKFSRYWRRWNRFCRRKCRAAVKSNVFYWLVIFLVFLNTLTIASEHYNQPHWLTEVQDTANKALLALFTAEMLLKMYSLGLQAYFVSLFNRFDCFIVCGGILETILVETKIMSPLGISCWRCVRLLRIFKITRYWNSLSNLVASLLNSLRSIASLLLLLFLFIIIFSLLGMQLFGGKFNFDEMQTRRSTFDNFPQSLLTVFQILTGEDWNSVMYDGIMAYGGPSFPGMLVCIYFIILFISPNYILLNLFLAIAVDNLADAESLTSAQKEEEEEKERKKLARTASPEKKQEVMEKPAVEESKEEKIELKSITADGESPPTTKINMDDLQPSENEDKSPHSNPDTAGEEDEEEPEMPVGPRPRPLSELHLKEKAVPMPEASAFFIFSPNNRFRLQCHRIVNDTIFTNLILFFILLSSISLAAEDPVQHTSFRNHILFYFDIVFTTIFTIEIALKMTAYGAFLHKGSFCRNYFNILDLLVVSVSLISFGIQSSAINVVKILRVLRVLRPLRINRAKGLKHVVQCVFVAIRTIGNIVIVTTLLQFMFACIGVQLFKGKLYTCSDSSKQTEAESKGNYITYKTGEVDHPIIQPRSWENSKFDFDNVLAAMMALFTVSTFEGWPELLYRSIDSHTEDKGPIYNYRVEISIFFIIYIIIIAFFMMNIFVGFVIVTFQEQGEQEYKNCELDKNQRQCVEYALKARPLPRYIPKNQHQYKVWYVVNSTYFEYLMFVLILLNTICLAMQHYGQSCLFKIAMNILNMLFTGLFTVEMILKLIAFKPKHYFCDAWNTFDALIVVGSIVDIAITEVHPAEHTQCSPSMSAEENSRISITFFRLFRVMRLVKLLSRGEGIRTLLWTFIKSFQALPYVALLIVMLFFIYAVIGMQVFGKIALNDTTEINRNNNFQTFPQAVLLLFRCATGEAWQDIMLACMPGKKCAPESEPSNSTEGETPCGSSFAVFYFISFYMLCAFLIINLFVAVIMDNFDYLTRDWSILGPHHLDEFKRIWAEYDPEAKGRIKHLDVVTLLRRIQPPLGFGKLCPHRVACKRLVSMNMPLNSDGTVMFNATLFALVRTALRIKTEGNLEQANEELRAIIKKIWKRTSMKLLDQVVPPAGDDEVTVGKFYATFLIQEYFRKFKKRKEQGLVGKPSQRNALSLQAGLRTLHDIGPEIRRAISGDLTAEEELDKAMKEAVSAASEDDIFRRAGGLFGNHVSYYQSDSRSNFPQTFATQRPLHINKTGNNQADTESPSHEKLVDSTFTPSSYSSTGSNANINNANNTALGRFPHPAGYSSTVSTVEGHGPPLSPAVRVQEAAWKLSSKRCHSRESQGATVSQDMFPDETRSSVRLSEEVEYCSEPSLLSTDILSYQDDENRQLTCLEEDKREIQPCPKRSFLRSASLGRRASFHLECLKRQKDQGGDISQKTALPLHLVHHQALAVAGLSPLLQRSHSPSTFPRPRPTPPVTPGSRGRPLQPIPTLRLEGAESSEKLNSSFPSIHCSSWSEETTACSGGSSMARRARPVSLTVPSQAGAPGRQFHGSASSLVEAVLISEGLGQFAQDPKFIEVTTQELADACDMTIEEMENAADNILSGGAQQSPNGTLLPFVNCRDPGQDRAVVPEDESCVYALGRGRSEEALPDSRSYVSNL

Adenosine receptor A3 = target: T2, Adenosine receptor A3 (Homo sapiens, UniProt P0DMS8)
T2 sequence (P0DMS8 whole entry): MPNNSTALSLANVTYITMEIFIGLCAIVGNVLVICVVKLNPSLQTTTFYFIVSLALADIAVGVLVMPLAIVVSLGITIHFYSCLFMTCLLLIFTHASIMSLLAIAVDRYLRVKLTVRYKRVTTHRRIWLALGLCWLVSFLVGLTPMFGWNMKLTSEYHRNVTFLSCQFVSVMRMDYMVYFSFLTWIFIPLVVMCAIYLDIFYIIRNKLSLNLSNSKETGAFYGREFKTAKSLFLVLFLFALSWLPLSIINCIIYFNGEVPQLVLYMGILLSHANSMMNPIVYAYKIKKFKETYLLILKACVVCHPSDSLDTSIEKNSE

[2] = target: T3, Alpha-2A adrenergic receptor (Homo sapiens, UniProt P08913); type: functional, cell-based
T3 sequence (P08913 whole entry): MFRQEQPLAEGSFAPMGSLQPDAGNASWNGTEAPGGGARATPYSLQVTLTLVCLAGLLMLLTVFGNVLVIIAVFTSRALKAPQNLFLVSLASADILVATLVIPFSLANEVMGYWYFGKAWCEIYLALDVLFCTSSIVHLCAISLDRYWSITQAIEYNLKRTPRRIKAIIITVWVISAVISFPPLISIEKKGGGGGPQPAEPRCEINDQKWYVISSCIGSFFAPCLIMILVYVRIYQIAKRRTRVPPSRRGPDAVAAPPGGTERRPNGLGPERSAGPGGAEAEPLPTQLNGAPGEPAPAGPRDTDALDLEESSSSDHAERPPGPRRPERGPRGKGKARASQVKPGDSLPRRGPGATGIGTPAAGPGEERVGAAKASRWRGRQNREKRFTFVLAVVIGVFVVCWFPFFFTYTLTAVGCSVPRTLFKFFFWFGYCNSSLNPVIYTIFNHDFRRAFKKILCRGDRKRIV

Progesterone receptor = target: T4, Progesterone receptor (Homo sapiens, UniProt P06401); type: functional
T4 sequence (P06401 whole entry): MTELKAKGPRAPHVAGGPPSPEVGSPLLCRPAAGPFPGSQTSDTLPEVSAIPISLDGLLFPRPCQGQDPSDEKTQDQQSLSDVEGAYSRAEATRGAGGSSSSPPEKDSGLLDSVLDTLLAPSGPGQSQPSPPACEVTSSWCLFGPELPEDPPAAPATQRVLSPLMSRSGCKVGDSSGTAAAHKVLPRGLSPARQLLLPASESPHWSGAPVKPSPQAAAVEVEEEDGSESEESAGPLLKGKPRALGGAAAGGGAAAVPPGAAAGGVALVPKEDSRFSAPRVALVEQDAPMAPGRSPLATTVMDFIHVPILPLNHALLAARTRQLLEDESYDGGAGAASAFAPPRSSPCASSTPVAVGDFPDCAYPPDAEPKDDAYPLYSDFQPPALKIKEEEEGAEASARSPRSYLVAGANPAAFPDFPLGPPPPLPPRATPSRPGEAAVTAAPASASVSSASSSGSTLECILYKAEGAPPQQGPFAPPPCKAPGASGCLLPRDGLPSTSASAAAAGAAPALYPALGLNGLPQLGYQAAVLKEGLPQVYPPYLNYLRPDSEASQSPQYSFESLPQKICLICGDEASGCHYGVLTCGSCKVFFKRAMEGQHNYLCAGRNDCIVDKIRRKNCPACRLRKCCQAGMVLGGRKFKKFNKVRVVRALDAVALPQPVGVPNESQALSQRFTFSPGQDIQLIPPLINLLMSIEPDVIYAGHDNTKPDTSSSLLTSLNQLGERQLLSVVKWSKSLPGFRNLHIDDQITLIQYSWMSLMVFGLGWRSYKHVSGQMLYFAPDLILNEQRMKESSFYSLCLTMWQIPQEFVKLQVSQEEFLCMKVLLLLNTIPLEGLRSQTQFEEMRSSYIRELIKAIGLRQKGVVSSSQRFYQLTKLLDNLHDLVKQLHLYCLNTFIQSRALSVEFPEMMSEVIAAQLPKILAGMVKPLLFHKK

Vasopressin V2 receptor = Vasopressin V2 receptor (Homo sapiens, UniProt P30518)
Chain of Vasopressin V2 receptor (P30518 whole entry): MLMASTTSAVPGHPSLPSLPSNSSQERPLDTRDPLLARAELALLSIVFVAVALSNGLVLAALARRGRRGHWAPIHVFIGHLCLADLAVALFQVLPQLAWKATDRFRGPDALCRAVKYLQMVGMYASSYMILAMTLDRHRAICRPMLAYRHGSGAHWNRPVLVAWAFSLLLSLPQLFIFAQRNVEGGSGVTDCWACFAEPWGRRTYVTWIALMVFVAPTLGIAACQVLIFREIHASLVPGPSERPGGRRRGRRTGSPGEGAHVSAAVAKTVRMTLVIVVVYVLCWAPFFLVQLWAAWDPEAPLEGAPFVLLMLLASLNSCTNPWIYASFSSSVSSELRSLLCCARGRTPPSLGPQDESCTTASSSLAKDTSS

[3] = target: Sodium-dependent dopamine transporter (Homo sapiens, UniProt Q01959)
Chain of Sodium-dependent dopamine transporter (Q01959 whole entry): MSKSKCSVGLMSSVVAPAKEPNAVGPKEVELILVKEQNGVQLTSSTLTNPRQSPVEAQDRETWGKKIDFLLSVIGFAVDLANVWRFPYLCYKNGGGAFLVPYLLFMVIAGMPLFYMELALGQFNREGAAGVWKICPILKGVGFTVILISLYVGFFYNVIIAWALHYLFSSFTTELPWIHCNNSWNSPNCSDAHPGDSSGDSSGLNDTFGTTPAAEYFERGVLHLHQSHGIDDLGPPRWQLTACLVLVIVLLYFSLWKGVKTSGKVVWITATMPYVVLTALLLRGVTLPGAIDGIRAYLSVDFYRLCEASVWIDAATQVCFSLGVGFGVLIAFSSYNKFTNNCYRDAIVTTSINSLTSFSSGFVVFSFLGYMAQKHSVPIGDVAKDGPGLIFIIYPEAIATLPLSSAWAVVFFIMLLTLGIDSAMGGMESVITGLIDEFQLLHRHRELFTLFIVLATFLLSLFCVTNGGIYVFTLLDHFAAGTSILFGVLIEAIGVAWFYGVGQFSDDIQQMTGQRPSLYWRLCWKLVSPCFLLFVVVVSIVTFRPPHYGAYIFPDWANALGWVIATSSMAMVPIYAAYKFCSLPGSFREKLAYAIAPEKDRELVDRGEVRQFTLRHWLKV

[4] = target: T5, 5-hydroxytryptamine receptor 1A (Homo sapiens, UniProt P08908); type: functional, cell-based
T5 sequence (P08908 whole entry): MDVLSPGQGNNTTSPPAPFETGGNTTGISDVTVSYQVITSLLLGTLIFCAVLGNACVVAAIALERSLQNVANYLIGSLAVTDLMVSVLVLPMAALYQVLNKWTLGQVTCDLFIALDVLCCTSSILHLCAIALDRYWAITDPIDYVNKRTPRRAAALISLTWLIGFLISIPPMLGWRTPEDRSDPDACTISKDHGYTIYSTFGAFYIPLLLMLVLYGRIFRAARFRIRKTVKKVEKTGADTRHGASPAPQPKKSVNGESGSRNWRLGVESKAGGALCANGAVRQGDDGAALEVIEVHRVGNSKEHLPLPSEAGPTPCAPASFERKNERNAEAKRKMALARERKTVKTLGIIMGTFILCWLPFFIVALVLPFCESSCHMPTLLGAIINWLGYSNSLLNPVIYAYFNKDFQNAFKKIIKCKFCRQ

[5] = target: 3',5'-cyclic-AMP phosphodiesterase 4D (Homo sapiens, UniProt Q08499); type: functional
Chain of 3',5'-cyclic-AMP phosphodiesterase 4D (Q08499 whole entry): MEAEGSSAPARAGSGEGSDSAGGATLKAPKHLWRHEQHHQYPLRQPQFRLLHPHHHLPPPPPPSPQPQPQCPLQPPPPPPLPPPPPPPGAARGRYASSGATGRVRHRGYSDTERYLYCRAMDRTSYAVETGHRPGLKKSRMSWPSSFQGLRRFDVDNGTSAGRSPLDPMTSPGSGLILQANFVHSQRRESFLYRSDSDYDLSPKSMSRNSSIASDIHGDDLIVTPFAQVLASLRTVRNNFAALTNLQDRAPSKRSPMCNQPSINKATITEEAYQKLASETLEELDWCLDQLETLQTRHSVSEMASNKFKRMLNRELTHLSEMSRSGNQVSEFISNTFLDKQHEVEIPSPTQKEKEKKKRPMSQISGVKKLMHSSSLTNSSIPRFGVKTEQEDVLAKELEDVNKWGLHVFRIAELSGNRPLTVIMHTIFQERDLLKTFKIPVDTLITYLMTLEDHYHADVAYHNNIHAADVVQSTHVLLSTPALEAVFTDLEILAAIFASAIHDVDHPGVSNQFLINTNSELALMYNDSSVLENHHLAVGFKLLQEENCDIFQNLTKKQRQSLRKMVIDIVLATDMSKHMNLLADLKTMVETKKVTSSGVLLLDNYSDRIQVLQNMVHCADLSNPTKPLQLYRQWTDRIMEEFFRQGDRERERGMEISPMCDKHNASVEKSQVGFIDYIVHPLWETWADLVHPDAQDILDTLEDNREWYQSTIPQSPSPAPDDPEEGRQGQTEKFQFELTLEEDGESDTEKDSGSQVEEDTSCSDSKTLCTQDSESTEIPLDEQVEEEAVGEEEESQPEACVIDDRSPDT
Note: assay procedure not described here.

SMILES	AC50 (Adenosine receptor A1)	AC50 (Cannabinoid receptor 1)	AC50 (Melanocortin receptor 3)	AC50 [1]	AC50 (Adenosine receptor A3)	AC50 [2]	AC50 (Progesterone receptor)	AC50 (Vasopressin V2 receptor)	AC50 [3]	AC50 [4]	AC50 [5]
CC(=O)Nc1c(I)c(C(=O)N[C@H]2C(O)O[C@H](CO)[C@@H](O)[C@@H]2O)c(I)c(N(C)C(C)=O)c1I (some centres not stated) [METRIZAMIDE]	> 10 µM	> 30 µM	> 10 µM	> 10 µM	> 10 µM	> 10 µM	> 10 µM	> 10 µM	> 10 µM	> 10 µM	> 30 µM
CN(c1nccc(=O)[nH]1)C1CCN(c2nc3ccccc3n2Cc2ccc(F)cc2)CC1 [MIZOLASTINE]	> 30 µM	> 30 µM	> 30 µM	> 30 µM	> 30 µM	23 µM	> 30 µM	> 30 µM	> 30 µM	> 30 µM	13 µM
CC[N+]1(C)CCCC(OC(=O)C(O)(c2ccccc2)c2ccccc2)C1 (configuration not stated) [PIPENZOLATE]	> 30 µM	> 30 µM	> 30 µM	> 30 µM	> 30 µM	> 30 µM	> 30 µM	> 30 µM	> 30 µM	> 30 µM	> 30 µM
CCN(CC)CC(=O)Oc1ccc(NC(C)=O)cc1 [PROPACETAMOL]	> 30 µM	> 30 µM	> 30 µM	> 30 µM	> 30 µM	> 30 µM	> 30 µM	> 30 µM	> 30 µM	> 30 µM	> 30 µM
CCCOC(C(=O)OC1CCN(C)CC1)(c1ccccc1)c1ccccc1 [PROPIVERINE]	> 30 µM	> 30 µM	> 30 µM	> 30 µM	> 30 µM	> 30 µM	> 30 µM	> 30 µM	16 µM	> 30 µM	> 30 µM
[H]/N=C(/N)N[C@H]1[C@H](O)[C@@H](O)[C@H](O[C@@H]2O[C@@H](C)[C@](O)(C=O)[C@H]2O[C@@H]2O[C@@H](CO)[C@H](O)[C@@H](O)[C@@H]2NC)[C@@H](N/C(N)=N\[H])[C@@H]1O [STREPTOMYCIN]	> 30 µM	> 30 µM	> 30 µM	> 30 µM	> 30 µM	> 30 µM	> 30 µM	> 30 µM	> 30 µM	> 30 µM	> 30 µM
C=CC(N)CCC(=O)O (configuration not stated) [VIGABATRIN]	> 10 µM	> 30 µM	> 10 µM	> 10 µM	> 10 µM	> 10 µM	> 10 µM	> 10 µM	19.5 µM	> 10 µM	> 30 µM

Second part, the molecule after the results:

AC50 (Adenosine receptor A1)	AC50 (Cannabinoid receptor 1)	AC50 (Melanocortin receptor 3)	AC50 [1]	AC50 (Adenosine receptor A3)	AC50 [2]	AC50 (Progesterone receptor)	AC50 (Vasopressin V2 receptor)	AC50 [3]	AC50 [4]	AC50 [5]	SMILES
> 30 µM	> 30 µM	> 30 µM	> 30 µM	> 30 µM	> 30 µM	> 30 µM	> 30 µM	> 30 µM	> 30 µM	> 30 µM	CCCCCCOC(=O)CCC(=O)CN [HEXAMINOLEVULINATE]
> 30 µM	> 30 µM	> 30 µM	> 30 µM	> 30 µM	> 30 µM	> 30 µM	> 30 µM	> 30 µM	> 30 µM	> 30 µM	Nc1nc2c(c(=O)[nH]1)N(C=O)C(CNc1ccc(C(=O)N[C@@H](CCC(=O)O)C(=O)O)cc1)CN2 (some centres not stated) [LEUCOVORIN]
> 30 µM	> 30 µM	> 30 µM	> 30 µM	> 30 µM	> 30 µM	> 30 µM	> 30 µM	> 30 µM	> 30 µM	4.2 µM	CC(C)OC(=O)C(C(=O)OC(C)C)=C1SC=CS1 [MALOTILATE]
> 30 µM	> 30 µM	> 30 µM	> 30 µM	> 30 µM	> 30 µM	> 30 µM	> 30 µM	> 30 µM	> 30 µM	> 30 µM	COc1c(O[C@@H]2O[C@H](CO)[C@@H](O)[C@H](O)[C@H]2O)cc2c(c1OC)-c1ccc(SC)c(=O)cc1[C@@H](NC(C)=O)CC2 [THIOCOLCHICOSIDE]
> 30 µM	> 30 µM	> 30 µM	> 30 µM	> 30 µM	> 30 µM	> 30 µM	> 30 µM	> 30 µM	> 30 µM	> 30 µM	CC(C)(C)NC[C@H](O)COc1nsnc1N1CCOCC1 [TIMOLOL]

Source: ChEMBL document CHEMBL5291721, “A preclinical secondary pharmacology resource illuminates target-adverse drug reaction associations of marketed drugs” (Nat Commun, 2023)
